# The source made the active and inactive calls. The rule behind the calls is not given here.
# Key:
# SW-620 [1] = assay: Antiproliferative activity against human SW620 cells after 48 hrs by SRB assay; type: functional, cell-based; conditions: SW-620, 48 h
# PC-3 = assay: Antiproliferative activity against human PC3 cells after 48 hrs by SRB assay; type: functional, cell-based; conditions: PC-3, 48 h
# NCI-H460 = assay: Antiproliferative activity against human NCI-H460 cells after 48 hrs by SRB assay; type: functional, cell-based; conditions: NCI-H460, 48 h
# ASPC1 [2] = assay: Antiproliferative activity against human AsPC1 cells after 48 hrs by SRB assay; type: functional, cell-based; conditions: ASPC1, 48 h
# MCF7 = assay: Antiproliferative activity against human MCF7 cells after 48 hrs by SRB assay; type: functional, cell-based; conditions: MCF7, 48 h
# [3] = target: T1, Histone deacetylase (Homo sapiens) (UniProt Q13547+O15379+Q9UBN7+Q92769+Q9UQL6+Q8WUI4+Q9BY41+Q96DB2+P56524+Q9UKV0+Q969S8); assay: Inhibition of HDAC in human SW620 cells assessed as acetylated histone-H4 level at 1 uM after 24 hrs by Western blotting analysis; type: cell-based; conditions: SW-620
# SW-620 [4] = assay: Antiproliferative activity against human SW620 cells at 30 uM after 48 hrs by SRB assay; type: functional, cell-based
# [5] = target: T1, Histone deacetylase (Homo sapiens); assay: Inhibition of HDAC in human SW620 cells assessed as acetylated histone-H3 level at 1 uM after 24 hrs by Western blotting analysis; type: cell-based; conditions: SW-620
# SW-620 [6] = assay: Ratio of SAHA IC50 to compound IC50 for human SW620 cells; type: functional
# ASPC1 [7] = assay: Ratio of SAHA IC50 to compound IC50 for human AsPC1 cells; type: functional
Structure (SMILES),IC50 (SW-620 [1]),IC50 (PC-3),IC50 (NCI-H460),IC50 (ASPC1 [2]),IC50 (MCF7),inhibition [3],inhibition [5],Activity (SW-620 [4]),Ratio IC50 (SW-620 [6]),Ratio IC50 (ASPC1 [7])
CO/N=C1/C(=O)N(CCCCCCC(=O)NO)c2ccc(Br)cc21,2.32 µM,8.91 µM,2.9 µM,1.68 µM,7.79 µM,Active,Active,Active,–,–
O=C(CCCCCCN1C(=O)/C(=N\O)c2cccc(Cl)c21)NO,1.05 µM,1.57 µM,1.35 µM,1.82 µM,1.74 µM,Active,Active,–,–,–
O=C(CCCCCCN1C(=O)/C(=N\O)c2ccccc21)NO,0.64 µM,0.98 µM,0.89 µM,1.1 µM,0.79 µM,Active,Active,Active,–,–
Cc1ccc2c(c1)/C(=N/O)C(=O)N2CCCCCCC(=O)NO,0.99 µM,0.62 µM,2.09 µM,2.44 µM,1.19 µM,Active,Active,Active,–,–
CO/N=C1/C(=O)N(CCCCCCC(=O)NO)c2ccc(Cl)cc21,0.49 µM,2.33 µM,0.76 µM,0.49 µM,1.56 µM,Active,Active,Active,–,–
CO/N=C1/C(=O)N(CCCCCCC(=O)NO)c2ccc(C)cc21,1.07 µM,0.35 µM,1.19 µM,5.48 µM,16.7 µM,inactive,inactive,Active,–,–
CO/N=C1/C(=O)N(CCCCCCC(=O)NO)c2ccccc21,0.73 µM,1.67 µM,0.75 µM,1.22 µM,1.71 µM,Active,Active,Active,–,–
O=C(CCCCCCN1C(=O)/C(=N\O)c2cc(F)ccc21)NO,0.11 µM,2.73 µM,1.5 µM,1.72 µM,1.55 µM,Active,Active,Active,30,–
O=C(CCCCCCN1C(=O)/C(=N\O)c2cc(Cl)ccc21)NO,0.65 µM,0.85 µM,0.85 µM,1.86 µM,0.68 µM,Active,Active,Active,–,–
CO/N=C1\C(=O)N(CCCCCCC(=O)NO)c2ccc([N+](=O)[O-])cc21,1.35 µM,1.69 µM,14.3 µM,0.84 µM,0.94 µM,inactive,inactive,Active,–,–

# Now from value to molecule, other results behind:
IC50 (SW-620 [1]),IC50 (PC-3),IC50 (NCI-H460),IC50 (ASPC1 [2]),IC50 (MCF7),inhibition [3],inhibition [5],Structure (SMILES),Activity (SW-620 [4]),Ratio IC50 (SW-620 [6]),Ratio IC50 (ASPC1 [7])
0.26 µM,0.29 µM,0.35 µM,0.63 µM,0.34 µM,Active,Active,CO/N=C1/C(=O)N(CCCCCCC(=O)NO)c2c(Cl)cccc21,–,–,–
0.29 µM,2.21 µM,0.97 µM,0.08 µM,1.77 µM,Active,Active,O=C(CCCCCCN1C(=O)/C(=N\O)c2cc(Br)ccc21)NO,Active,–,45
3.39 µM,19.7 µM,7.71 µM,4.68 µM,1.34 µM,inactive,inactive,O=C(CCCCCCN1C(=O)/C(=N\O)c2cc([N+](=O)[O-])ccc21)NO,Active,–,–
1.11 µM,1.15 µM,0.97 µM,0.97 µM,2.42 µM,Active,Active,CO/N=C1/C(=O)N(CCCCCCC(=O)NO)c2ccc(F)cc21,Active,–,–

# From ChEMBL document CHEMBL3085752, “Novel isatin-based hydroxamic acids as histone deacetylase inhibitors and antitumor agents” (Eur J Med Chem, 2013)
